Measured values: patent publication US20150045291A1, “LIPOPEPTIDE CONJUGATES COMPRISING SPHINGOLIPID AND HIV GP41 DERIVED PEPTIDES” (priority 2012, published 2015)
Where two headings read alike, the source gives them in different places. Starred links: 1 amine or outer side, 2 acyl side, 3 side chain; linkers in the order of their positions; H or OH if unused. Residues, ends and D or L forms follow the SMILES beside them. Groups on a side chain read outwards from the residue. *: point of attachment. Sphinganine = CCCCCCCCCCCCCCC[C@@H](O)[C@H](CO)N*; X2 = CCCCCCCCCCCCC/C=C/[C@@H](O)[C@H](CO)N*; CO = O=C([*:1])[*:2]

System: fully infectious HIV-1 HXB2
[1] = fully infectious HIV-1 system (Table 2)
[2] = read-out: IC50 (inhibitory concentration at 50% infectivity), TZM-bl cells, fully contagious HXB2 HIV-1

| Structure (SMILES) | IC50 [1] [nM] | also measured |
| --- | --- | --- |
| CCCCCCCCCCCCCCC[C@@H](O)[C@H](CO)NC(=O)N[C@@H](CCC(=O)O)C(=O)N[C@@H](CC(C)C)C(=O)N[C@@H](CCC(N)=O)C(=O)N[C@@H](CC(C)C)C(=O)N[C@H](C(=O)N[C@@H](CCC(N)=O)C(=O)N[C@@H](Cc1c[nH]c2ccccc12)C(=O)N[C@@H](CCCCN)C(=O)N[C@H](C(=O)N[C@@H](CCCCN)C(=O)N[C@@H](CCC(N)=O)C(=O)N[C@@H](CC(C)C)C(=O)N[C@@H](CC(C)C)C(=O)N[C@@H](C)C(=O)N[C@@H](CCCNC(=N)N)C(=O)N[C@H](C(=O)N[C@@H](CC(C)C)C(=O)N[C@@H](CCCCN)C(N)=O)[C@@H](C)CC)[C@@H](C)CC)[C@@H](C)O [Sphing-N17mut (e, g) K, Sphinganine-ELQLTQWKIKQLLARILK] ({Sphinganine-CO}-ELQLTQWKIKQLLARILK-NH2) | 120 ± 30 |  |
| CC[C@H](C)[C@H](NC(=O)CNC(=O)[C@H](Cc1c[nH]c2ccccc12)NC(=O)[C@@H](NC(=O)[C@@H](NC(=O)[C@H](CC(C)C)NC(=O)[C@H](CCC(N)=O)NC(=O)[C@H](CC(C)C)NC(=O)[C@@H](N)CC(C)C)[C@@H](C)O)C(C)C)C(=O)N[C@@H](CCCCN)C(=O)N[C@@H](CCC(N)=O)C(=O)N[C@@H](CC(C)C)C(=O)N[C@@H](CCC(N)=O)C(=O)N[C@@H](C)C(N)=O [N14, LLQLTVWGIKQLQA] (H-LLQLTVWGIKQLQA-NH2; C-terminus assumed) | > 4000 |  |
| CCCCCCCCCCCCCCC[C@@H](O)[C@H](CO)NC(=O)NCCCC[C@H](NC(=O)[C@H](CC(C)C)NC(=O)[C@@H](NC(=O)[C@H](CCCNC(=N)N)NC(=O)[C@H](C)NC(=O)[C@H](CCC(N)=O)NC(=O)[C@H](CC(C)C)NC(=O)[C@H](CCC(N)=O)NC(=O)[C@H](CCCCN)NC(=O)[C@@H](NC(=O)CNC(=O)[C@H](Cc1c[nH]c2ccccc12)NC(=O)[C@@H](NC(=O)[C@@H](NC(=O)[C@H](CC(C)C)NC(=O)[C@H](CCC(N)=O)NC(=O)[C@H](CC(C)C)NC(=O)[C@@H](N)CC(C)C)[C@@H](C)O)C(C)C)[C@@H](C)CC)[C@@H](C)CC)C(N)=O [N17K-sphing, LLQLTVWGIKQLQARILK-Sphinganine] (H-LLQLTVWGIKQLQARILK([CO-Sphinganine])-NH2) | 291 ± 102 | IC50 [2]: 287 nM |
| CC[C@H](C)[C@H](NC(=O)[C@H](CC(C)C)NC(=O)[C@H](CO)NC(=O)[C@H](Cc1c[nH]cn1)NC(=O)[C@@H](NC(=O)[C@H](CC(C)C)NC(=O)[C@H](CO)NC(=O)[C@@H](NC(=O)[C@@H](N)Cc1ccc(O)cc1)[C@@H](C)O)[C@@H](C)CC)C(=O)N[C@@H](CCC(=O)O)C(=O)N[C@@H](CCC(=O)O)C(=O)N[C@@H](CO)C(=O)N[C@@H](CCC(N)=O)C(=O)N[C@@H](CC(N)=O)C(=O)N[C@@H](CCC(N)=O)C(=O)N[C@@H](CCC(N)=O)C(=O)N[C@@H](CCC(=O)O)C(=O)N[C@@H](CCCCN)C(=O)N[C@@H](CC(N)=O)C(=O)N[C@@H](CCCCN)C(N)=O [DP19K] (H-YTSLIHSLIEESQNQQEKNK-NH2; C-terminus assumed) | 2210 ± 507 |  |
| CCCCCCCCCCCCCCC[C@@H](O)[C@@H](N)CO [sphinganine, D-erythro-Dihydrosphingosine, reference compound] |  | Effect on viral infectivity / fusion (in words) (at / up to 1 μM): did not affect viral infectivity |
| CCCCCCCCCCCCCCC[C@@H](O)[C@H](CO)NC(=O)N[C@@H](CC(C)C)C(=O)N[C@@H](CC(C)C)C(=O)N[C@@H](CCC(N)=O)C(=O)N[C@@H](CC(C)C)C(=O)N[C@H](C(=O)N[C@H](C(=O)N[C@@H](Cc1c[nH]c2ccccc12)C(=O)NCC(=O)N[C@H](C(=O)N[C@@H](CCCCN)C(=O)N[C@@H](CCC(N)=O)C(=O)N[C@@H](CC(C)C)C(=O)N[C@@H](CCC(N)=O)C(=O)N[C@@H](C)C(N)=O)[C@@H](C)CC)C(C)C)[C@@H](C)O [Sphing-N14, Sphinganine-LLQLTVWGIKQLQA] ({Sphinganine-CO}-LLQLTVWGIKQLQA-NH2) | 500 ± 100 |  |
| CCCCCCCCCCCCCCC[C@@H](O)[C@H](CO)NC(=O)NCCCC[C@H](NC(=O)[C@H](CC(N)=O)NC(=O)[C@H](CCCCN)NC(=O)[C@H](CCC(=O)O)NC(=O)[C@H](CCC(N)=O)NC(=O)[C@H](CCC(N)=O)NC(=O)[C@H](CC(N)=O)NC(=O)[C@H](CCC(N)=O)NC(=O)[C@H](CO)NC(=O)[C@H](CCC(=O)O)NC(=O)[C@H](CCC(=O)O)NC(=O)[C@@H](NC(=O)[C@H](CC(C)C)NC(=O)[C@H](CO)NC(=O)[C@H](Cc1c[nH]cn1)NC(=O)[C@@H](NC(=O)[C@H](CC(C)C)NC(=O)[C@H](CO)NC(=O)[C@@H](NC(=O)[C@@H](N)Cc1ccc(O)cc1)[C@@H](C)O)[C@@H](C)CC)[C@@H](C)CC)C(N)=O [DP19K-sphing] (H-YTSLIHSLIEESQNQQEKNK([CO-Sphinganine])-NH2) |  | IC50 [2]: 350 nM |
| CCCCCCCCCCCCCCC[C@@H](O)[C@H](CO)NC(=O)N[C@@H](CC(C)C)C(=O)N[C@@H](CC(C)C)C(=O)N[C@@H](CCC(N)=O)C(=O)N[C@@H](CC(C)C)C(=O)N[C@H](C(=O)N[C@H](C(=O)N[C@@H](Cc1c[nH]c2ccccc12)C(=O)NCC(=O)N[C@H](C(=O)N[C@@H](CCCCN)C(=O)N[C@@H](CCC(N)=O)C(=O)N[C@@H](CC(C)C)C(=O)N[C@@H](CCC(N)=O)C(=O)N[C@@H](C)C(=O)N[C@@H](CCCNC(=N)N)C(=O)N[C@H](C(=O)N[C@@H](CC(C)C)C(=O)N[C@@H](CCCCN)C(N)=O)[C@@H](C)CC)[C@@H](C)CC)C(C)C)[C@@H](C)O [Sphing-N17K, Sphinganine-LLQLTVWGIKQLQARILK] ({Sphinganine-CO}-LLQLTVWGIKQLQARILK-NH2) | 118 ± 18 | IC50 [2]: 116 nM |
| CCCCCCCCCCCCC/C=C/[C@@H](O)[C@H](CO)NC(=O)N[C@@H](CC(C)C)C(=O)N[C@@H](CC(C)C)C(=O)N[C@@H](CCC(N)=O)C(=O)N[C@@H](CC(C)C)C(=O)N[C@H](C(=O)N[C@H](C(=O)N[C@@H](Cc1c[nH]c2ccccc12)C(=O)NCC(=O)N[C@H](C(=O)N[C@@H](CCCCN)C(=O)N[C@@H](CCC(N)=O)C(=O)N[C@@H](CC(C)C)C(=O)N[C@@H](CCC(N)=O)C(=O)N[C@@H](C)C(=O)N[C@@H](CCCNC(=N)N)C(=O)N[C@H](C(=O)N[C@@H](CC(C)C)C(N)=O)[C@@H](C)CC)[C@@H](C)CC)C(C)C)[C@@H](C)O [Sphingosine-N17, Sphingosine-LLQLTVWGIKQLQARIL] ({X2-CO}-LLQLTVWGIKQLQARIL-NH2) |  | IC50 [2]: 208 nM |
| CCCCCCCCCCCCCCC[C@@H](O)[C@H](CO)NC(=O)NCCCC[C@H](NC(=O)[C@H](CC(C)C)NC(=O)[C@@H](NC(=O)[C@H](CCCNC(=N)N)NC(=O)[C@H](C)NC(=O)[C@H](CC(C)C)NC(=O)[C@H](CC(C)C)NC(=O)[C@H](CCC(N)=O)NC(=O)[C@H](CCCCN)NC(=O)[C@@H](NC(=O)[C@H](CCCCN)NC(=O)[C@H](Cc1c[nH]c2ccccc12)NC(=O)[C@H](CCC(N)=O)NC(=O)[C@@H](NC(=O)[C@H](CC(C)C)NC(=O)[C@H](CCC(N)=O)NC(=O)[C@H](CC(C)C)NC(=O)[C@@H](N)CCC(=O)O)[C@@H](C)O)[C@@H](C)CC)[C@@H](C)CC)C(N)=O [N17mut (e, g) K-sphing, ELQLTQWKIKQLLARILK-Sphinganine] (H-ELQLTQWKIKQLLARILK([CO-Sphinganine])-NH2) | 120 ± 40 |  |
| CCCCCCCCCCCCCCC[C@@H](O)[C@H](CO)NC(=O)N[C@@H](CC(C)C)C(=O)N[C@@H](CCC(N)=O)C(=O)N[C@@H](C)C(=O)N[C@@H](CCCNC(=N)N)C(=O)N[C@H](C(=O)N[C@@H](CC(C)C)C(=O)N[C@@H](C)C(=O)N[C@H](C(=O)N[C@@H](CCC(=O)O)C(=O)N[C@@H](CCCNC(=N)N)C(=O)N[C@@H](Cc1ccc(O)cc1)C(=O)N[C@@H](CC(C)C)C(=O)N[C@@H](CCCCN)C(=O)N[C@@H](CC(=O)O)C(=O)N[C@@H](CCC(N)=O)C(=O)N[C@@H](CCC(N)=O)C(=O)N[C@@H](CC(C)C)C(N)=O)C(C)C)[C@@H](C)CC [Sphing-ShN17, Sphinganine-LQARILAVERYLKDQQL] ({Sphinganine-CO}-LQARILAVERYLKDQQL-NH2) | 886 ± 102 |  |
| CC[C@H](C)[C@H](NC(=O)[C@H](CCC(N)=O)NC(=O)[C@H](CC(C)C)NC(=O)[C@H](Cc1c[nH]c2ccccc12)NC(=O)[C@H](CC(C)C)NC(=O)[C@@H](NC(=O)[C@H](CCC(N)=O)NC(=O)[C@H](CC(C)C)NC(=O)[C@H](CCCNC(=N)N)NC(=O)[C@H](C)NC(=O)[C@@H](NC(=O)[C@H](CCCCN)NC(=O)[C@@H](N)CCC(N)=O)[C@@H](C)CC)[C@@H](C)O)C(=O)NCC(=O)N[C@H](C(=O)N[C@@H](CC(C)C)C(=O)N[C@@H](CC(C)C)C(N)=O)C(C)C [N17 scrambled, QKIARLQTLWLQIGVLL] (H-QKIARLQTLWLQIGVLL-NH2; C-terminus assumed) | > 4000 |  |
| CC[C@H](C)[C@H](NC(=O)[C@H](CCC(=O)O)NC(=O)[C@H](CCCNC(=N)N)NC(=O)[C@H](CC(=O)O)NC(=O)[C@H](Cc1c[nH]c2ccccc12)NC(=O)[C@H](CCC(=O)O)NC(=O)[C@H](CCSC)NC(=O)[C@H](Cc1c[nH]c2ccccc12)NC(=O)[C@@H](NC(=O)[C@@H](N)[C@@H](C)O)[C@@H](C)O)C(=O)N[C@@H](CC(N)=O)C(=O)N[C@@H](CC(N)=O)C(=O)N[C@@H](Cc1ccc(O)cc1)C(=O)N[C@H](C(=O)N[C@@H](CCCCN)C(N)=O)[C@@H](C)O [PBDK, TTWMEWDREINNYTK] (H-TTWMEWDREINNYTK-NH2; N-terminus and C-terminus assumed) |  | IC50 (read-out: IC50 (nM), […], fully infectious HIV-1 system (Table 3)): 5350 ± 1700 nM; IC90 (read-out: IC90 (nM), […], fully infectious HIV-1 system (Table 3)): > 10000 nM |
| CC[C@H](C)[C@H](NC(=O)[C@H](CCCNC(=N)N)NC(=O)[C@H](C)NC(=O)[C@H](CC(C)C)NC(=O)[C@H](CC(C)C)NC(=O)[C@H](CCC(N)=O)NC(=O)[C@H](CCCCN)NC(=O)[C@@H](NC(=O)[C@H](CCCCN)NC(=O)[C@H](Cc1c[nH]c2ccccc12)NC(=O)[C@H](CCC(N)=O)NC(=O)[C@@H](NC(=O)[C@H](CC(C)C)NC(=O)[C@H](CCC(N)=O)NC(=O)[C@H](CC(C)C)NC(=O)[C@@H](N)CCC(=O)O)[C@@H](C)O)[C@@H](C)CC)C(=O)N[C@@H](CC(C)C)C(=O)N[C@@H](CCCCN)C(N)=O [N17mut (e, g) K, ELQLTQWKIKQLLARILK] (H-ELQLTQWKIKQLLARILK-NH2; C-terminus assumed) | > 4000 |  |
